Experimental data: ChEMBL document CHEMBL1139741, “Synthesis of 1,2,4-trioxepanes via application of thiol-olefin co-oxygenation methodology” (Bioorg Med Chem Lett, 2006)

tested on: Plasmodium falciparum; assay: Antimalarial activity against Plasmodium falciparum 3D7; assay type: functional, organism-based

Structure (SMILES)	IC50 [nM]
CC1(CS(=O)(=O)c2ccc(Cl)cc2)COC2(CCCC2)OO1 (stereo not drawn)	99.8
CC1(CS(=O)(=O)c2ccc(Cl)cc2)COC2(CCCCC2)OO1 (stereo not drawn)	137
CC1(CS(=O)(=O)c2ccc(Cl)cc2)CCOC(=C2C3CC4CC(C3)CC2C4)OO1 (stereo not drawn)	> 1000
CC1(CS(=O)(=O)c2ccc(Cl)cc2)CCOC2(CCCCC2)OO1 (stereo not drawn)	> 1000
CC1(CS(=O)(=O)c2ccc(Cl)cc2)COC(=C2C3CC4CC(C3)CC2C4)OO1 (stereo not drawn)	189
CC1(CS(=O)(=O)c2ccc(Cl)cc2)CCOC2(CCCC2)OO1 (stereo not drawn)	> 1000
CC1(CSc2ccc(Cl)cc2)COC2(CCCC2)OO1 (stereo not drawn)	110
COC(=O)/C=C/C1(C)CCOC(=C2C3CC4CC(C3)CC2C4)OO1 (stereo not drawn)	> 1000
